Values quoted from earlier work, collected in patent publication US20100291025A1, “INDAZOLE INHIBITORS OF TYROSINE KINASE” (AUSPEX PHARMACEUTICALS, INC., priority 2009, published 2010).

Details: in vivo

For `Cc1ccc(Nc2nccc(N(C)c3ccc4c(C)n(C)nc4c3)n2)cc1S(N)(=O)=O` [Pazopanib, 5-[[4-[(2,3-Dimethyl-2H-indazol-6-yl)(methyl)amino]pyrimidin-2-yl]amino]-2-methylbenzenesulfonamide], the “adverse effects associated with administration” value is listed as “nausea, diarrhea, anorexia, hypertension, fatigue, hair depigmentation, and vomiting”.
